Measurements: PubChem BioAssay (NCI)
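96-well plates; 48 h exposure; 5 concentrations. Endpoints by linear interpolation between flanking doses. Not reached: highest tested concentration assigned. At the TGI there is no net growth.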

Columns and labels:
Assay in all cases: NCI tumour cell line growth inhibition, 48 h
786-0 renal = system: 786-0 renal
A498 renal = system: A498 renal
CAKI-1 renal = system: CAKI-1 renal
COLO 205 colon = system: COLO 205 colon
K-562 leukemia = system: K-562 leukemia
MOLT-4 leukemia = system: MOLT-4 leukemia
NCI-H460 lung = system: NCI-H460 lung
NCI-H522 lung = system: NCI-H522 lung
OVCAR-5 ovarian = system: OVCAR-5 ovarian
SF-268 CNS = system: SF-268 CNS
SF-295 CNS = system: SF-295 CNS
SK-MEL-2 melanoma = system: SK-MEL-2 melanoma
SN12C renal = system: SN12C renal
SNB-19 CNS = system: SNB-19 CNS
SNB-75 CNS = system: SNB-75 CNS
UACC-62 melanoma = system: UACC-62 melanoma
UO-31 renal = system: UO-31 renal

Row | SMILES | TGI (786-0 renal) [µM] | TGI (A498 renal) [µM] | TGI (CAKI-1 renal) [µM] | TGI (COLO 205 colon) [µM] | TGI (K-562 leukemia) [µM] | TGI (MOLT-4 leukemia) [µM] | TGI (NCI-H460 lung) [µM] | TGI (NCI-H522 lung) [µM] | TGI (OVCAR-5 ovarian) [µM] | TGI (SF-268 CNS) [µM] | TGI (SF-295 CNS) [µM] | TGI (SK-MEL-2 melanoma) [µM] | TGI (SN12C renal) [µM] | TGI (SNB-19 CNS) [µM] | TGI (SNB-75 CNS) [µM] | TGI (UACC-62 melanoma) [µM] | TGI (UO-31 renal) [µM]
1 | C=CC(C)CCC(C/C=C(\C)CCC=C(C)C)C(=C)CCCC(C)C (stereo unspecified) | > 100 | > 100 | > 100 | > 100 | > 100 | > 100 | > 100 | > 100 | > 100 | > 100 | > 100 | > 100 | > 100 | > 100 | > 100 | > 100 | > 100
2 | COc1cc(/C=C/c2cc(/C=C/c3ccc(O)c(OC)c3)oc(=O)c2)ccc1O | 34.9 | 13.6 | 16.1 | > 73.2 | > 28 | > 26.2 | 7.63 | > 23.9 | > 100 | > 39.7 | 19.4 | > 65.9 | > 71.4 | > 100 | 4.61 | 18.5 | > 100
3 | COc1cc2c(cc1OCc1ccccc1)NC(=S)[C@@H]1CCCN1C2=S | > 100 | > 100 | > 100 | > 100 | > 100 | > 100 | > 100 | > 100 | > 100 | > 100 | > 100 | > 100 | > 100 | > 100 | 90.3 | > 100 | > 100
